Tested on: E. coli ATCC 35218
Experiment: Resistance development assay
Assay type: cell-based
Conditions: after 16 passages, serial passaging in sub-MIC concentrations

Row | Compound | fold increase of MIC against E. coli ATCC 35218 [fold]
1 | O=C(O)c1cn(C2CC2)c2cc(N3CCNCC3)c(F)cc2c1=O [ciprofloxacin] | 256
2 | colistin | 128

Reference: PMC11364095 (Science Advances, 2024)
